Assays:
Assay type in all cases: cell-based
Conditions in all cases: Homo sapiens, compound 5 hours at 37° C., 1% DMSO, percent vehicle fit to 4 parameter curve
Aβ-38 = Aβ-38 level in conditioned media of 2B7 cells (MSD 3-PLEX ELISA)
Method in brief: (§1)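 2B7 cells at confluence were exposed to compound dilutions in medium (1% DMSO final) for 5 h at 37 °C. Conditioned medium, diluted 1:1 in blocking buffer, was assayed by MSD 3-plex electrochemiluminescence ELISA, and levels were read from a seven-point standard curve. IC50 came from a 4-parameter fit of percent-of-vehicle values.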

Aβ-40 = Aβ-40 level in conditioned media of 2B7 cells (MSD 3-PLEX ELISA)
Method: Assays were conducted to determine the ability of a Compound of Formula I to modulate […], and Aβ-38.
Human (6E10) Ab 3-PLEX elisa kits were purchased from Meso Scale Discovery Labs, 9328 Gaither Road, Gaithersburg, Md. 20877 (Catalog Number K15148E-3). Plates with capture antibodies were blocked for 1-2 hours at room temperature with 150 μL of the manufactures blocking reagent.
Cultured 2B7 cells in 96 well plate with 250 uL of media per well until confluent;
Prepared serial dilutions of compounds in DMSO at 100× the final desired concentration;
Washed wells with 2B7 cells 1× with 250 uL of media;
Diluted DMSO stocks 1:100 into media:
Added 250 μL of media containing compounds (1% DMSO) to wells with 2B7 cells for 5 hours at 37° C.
Diluted conditioned media: 1 part media with 1% DMSO and 1 part blocking buffer;
150 μL of the 250 μL of conditioned media were used.
Standard Curve Sample Prep:
Prepared per manufacturer's protocol (see above)
Seven point standard curve samples were prepared that contained Aβ-42, Aβ-40, and Aβ-38. The highest concentration of Aβ-42 and Aβ-38 was 3,000 pg/mL and the highest concentration of Aβ-40 was 10,000 pg/mL. Subsequent serial dilutions were 1:3 and the final composition of each sample was 1 part blocking buffer and 1 part cell medium containing 1% DMSO.
Overnight Sample Incubation:
Blocked plates are washed 5× with MSD wash buffer with a plate washer
25 uL of detection antibody and blocker G reagent in MSD blocking solution is added
25 uL of samples (1 part conditioned media containing 1% DMSO and 1 part MSD blocking buffer) are then added.
plates are incubated overnight at 4 degrees C. or 2 hours at room temp
Wash wells 5× with MSD wash buffer
Added 150 μL 2×MSD read buffer
A-Beta peptide levels for each peptide are calculated from the standard curve using the MSD software provided with the MSD 2400 Imager. Percent vehicle values for each compound dosage were then calculated and fit to a 4 parameter curve generating IC50 values.

Aβ-42 = Aβ-42 level in conditioned media of 2B7 cells (MSD 3-PLEX ELISA)
Method in brief: as §1

## CCO[C@@H]([C@H]1C[C@@H](C)[C@H]2[C@H](O1)[C@H](O)[C@@]1(C)[C@@H]3CC[C@H]4C(C)(C)[C@@H](OC(=O)[C@@H]5COCCN5C)CCC45C[C@@]35CC[C@]21C)C(C)(C)O (stereo partly drawn)
Aβ-38
  IC50: < 1000 nM
Aβ-40
  IC50: 1000 to 10000 nM
Aβ-42
  IC50: < 1000 nM

## CCO[C@@H]([C@H]1C[C@@H](C)[C@H]2[C@H](O1)[C@H](O)[C@@]1(C)[C@@H]3CC[C@H]4C(C)(C)[C@@H](OC(=O)C5CCN5C)CCC45C[C@@]35CC[C@]21C)C(C)(C)O (stereo partly drawn)
Aβ-38
  IC50: 1000 to 10000 nM
Aβ-40
  IC50: > 10000 nM
Aβ-42
  IC50: < 1000 nM

## CCO[C@@H]([C@H]1C[C@@H](C)[C@H]2[C@H](O1)[C@H](O)[C@@]1(C)[C@@H]3CC[C@H]4C(C)(C)[C@@H](O[C@H]5CN([C@H](C)CO)CCO5)CC[C@@]45C[C@@]35CC[C@]21C)C(C)(C)O
Aβ-38
  IC50: 1000 to 10000 nM
Aβ-40
  IC50: 1000 to 10000 nM
Aβ-42
  IC50: < 1000 nM

## CCO[C@@H]([C@H]1C[C@@H](C)[C@H]2[C@H](O1)[C@H](O)[C@@]1(C)[C@@H]3CC[C@H]4C(C)(C)[C@@H](O[C@H]5CN(C6CN(C(C)=O)C6)CCO5)CCC45C[C@@]35CC[C@]21C)C(C)(C)O (stereo partly drawn)
Aβ-38
  IC50: 1000 to 10000 nM
Aβ-40
  IC50: 1000 to 10000 nM
Aβ-42
  IC50: < 1000 nM

## CCO[C@@H]([C@H]1C[C@@H](C)[C@H]2[C@H](O1)[C@H](O)[C@@]1(C)[C@@H]3CC[C@H]4C(C)(C)[C@@H](O[C@H]5CN(CCO)CCO5)CCC45C[C@@]35CC[C@]21C)C(C)(C)O (stereo partly drawn)
Aβ-38
  IC50: < 1000 nM
Aβ-40
  IC50: 1000 to 10000 nM
Aβ-42
  IC50: < 1000 nM

## CCO[C@@H]([C@H]1C[C@@H](C)[C@H]2[C@H](O1)[C@H](O)[C@@]1(C)[C@@H]3CC[C@H]4C(C)(C)[C@@H](O[C@H]5CN(CCN6CCOC6=O)CCO5)CCC45C[C@@]35CC[C@]21C)C(C)(C)O (stereo partly drawn)
Aβ-38
  IC50: < 1000 nM
Aβ-40
  IC50: 1000 to 10000 nM
Aβ-42
  IC50: < 1000 nM

## CCO[C@@H]([C@H]1C[C@@H](C)[C@H]2[C@H](O1)[C@H](O)[C@@]1(C)[C@@H]3CC[C@H]4C(C)(C)[C@@H](O[C@H]5CN(CC(=O)NCCOC)CCO5)CCC45C[C@@]35CC[C@]21C)C(C)(C)O (stereo partly drawn)
Aβ-38
  IC50: 1000 to 10000 nM
Aβ-40
  IC50: 1000 to 10000 nM
Aβ-42
  IC50: < 1000 nM

## CCO[C@@H]([C@H]1C[C@@H](C)[C@H]2[C@H](O1)[C@H](O)[C@@]1(C)[C@@H]3CC[C@H]4C(C)(C)[C@@H](OC(=O)C5CNC5)CCC45C[C@@]35CC[C@]21C)C(C)(C)O (stereo partly drawn)
Aβ-38
  IC50: < 1000 nM
Aβ-40
  IC50: 1000 to 10000 nM
Aβ-42
  IC50: < 1000 nM

## CCO[C@@H]([C@H]1C[C@@H](C)[C@H]2[C@H](O1)[C@H](O)[C@@]1(C)[C@@H]3CC[C@H]4C(C)(C)[C@@H](O[C@H]5CN(C(=O)CNS(=O)(=O)C(F)(F)F)CCO5)CCC45C[C@@]35CC[C@]21C)C(C)(C)O (stereo partly drawn)
Aβ-38
  IC50: < 1000 nM
Aβ-40
  IC50: 1000 to 10000 nM
Aβ-42
  IC50: < 1000 nM

## CCO[C@@H]([C@H]1C[C@@H](C)[C@H]2[C@H](O1)[C@H](O)[C@@]1(C)[C@@H]3CC[C@H]4C(C)(C)[C@@H](O[C@H]5CN(C6(C)COC6)CCO5)CCC45C[C@@]35CC[C@]21C)C(C)(C)O (stereo partly drawn)
Aβ-38
  IC50: < 1000 nM
Aβ-40
  IC50: 1000 to 10000 nM
Aβ-42
  IC50: < 1000 nM

## CCO[C@@H]([C@H]1C[C@@H](C)[C@H]2[C@H](O1)[C@H](O)[C@@]1(C)[C@@H]3CC[C@H]4C(C)(C)[C@@H](O[C@H]5CN(C(C)(C)CN6CC(F)C6)CCO5)CCC45C[C@@]35CC[C@]21C)C(C)(C)O (stereo partly drawn)
Aβ-38
  IC50: < 1000 nM
Aβ-40
  IC50: 1000 to 10000 nM
Aβ-42
  IC50: < 1000 nM

## CCO[C@@H]([C@H]1C[C@@H](C)[C@H]2[C@H](O1)[C@H](O)[C@@]1(C)[C@@H]3CC[C@H]4C(C)(C)[C@@H](OC(=O)C5CCN5)CCC45C[C@@]35CC[C@]21C)C(C)(C)O (stereo partly drawn)
Aβ-38
  IC50: < 1000 nM
Aβ-40
  IC50: 1000 to 10000 nM
Aβ-42
  IC50: < 1000 nM

## CO[C@@H](C1C[C@@H](C)[C@H]2C(O1)[C@H](O)[C@@]1(C)C3CC[C@H]4C(C)(C)[C@@H](O[C@H]5CN(C)CCO5)CC[C@@]45CC35CC[C@]21C)C(C)(C)O (stereo partly drawn)
Aβ-38
  IC50: 1000 to 10000 nM
Aβ-40
  IC50: 1000 to 10000 nM
Aβ-42
  IC50: 1000 to 10000 nM

## CCO[C@@H]([C@H]1C[C@@H](C)[C@H]2[C@H](O1)[C@H](O)[C@@]1(C)[C@@H]3CC[C@H]4C(C)(C)[C@@H](OC(=O)[C@@H]5COCCN5)CCC45C[C@@]35CC[C@]21C)C(C)(C)O (stereo partly drawn)
Aβ-38
  IC50: < 1000 nM
Aβ-40
  IC50: 1000 to 10000 nM
Aβ-42
  IC50: < 1000 nM

## CCO[C@@H]([C@H]1C[C@@H](C)[C@H]2[C@H](O1)[C@H](O)[C@@]1(C)[C@@H]3CC[C@H]4C(C)(C)[C@@H](OC(=O)[C@H]5COCCN5C)CCC45C[C@@]35CC[C@]21C)C(C)(C)O (stereo partly drawn)
Aβ-38
  IC50: < 1000 nM
Aβ-40
  IC50: > 10000 nM
Aβ-42
  IC50: < 1000 nM

## CCO[C@@H]([C@H]1C[C@@H](C)[C@H]2[C@H](O1)[C@H](O)[C@@]1(C)[C@@H]3CC[C@H]4C(C)(C)[C@@H](OC(=O)[C@@H]5COCCN5C(C)C)CCC45C[C@@]35CC[C@]21C)C(C)(C)O (stereo partly drawn)
Aβ-38
  IC50: 1000 to 10000 nM
Aβ-40
  IC50: > 10000 nM
Aβ-42
  IC50: < 1000 nM

## CCO[C@@H]([C@H]1C[C@@H](C)[C@H]2[C@H](O1)[C@H](O)[C@@]1(C)[C@@H]3CC[C@H]4C(C)(C)[C@@H](O[C@H]5CN([C@@H](C)C(=O)N6CCC6)CCO5)CCC45C[C@@]35CC[C@]21C)C(C)(C)O (stereo partly drawn)
Aβ-38
  IC50: 1000 to 10000 nM
Aβ-40
  IC50: > 10000 nM
Aβ-42
  IC50: < 1000 nM

## CO[C@@H]([C@H]1C[C@@H](C)[C@H]2[C@H](O1)[C@H](O)[C@@]1(C)[C@@H]3CC[C@H]4C(C)(C)[C@@H](OC5CN(C6CCN(C)C6=O)CCO5)CCC45C[C@@]35CC[C@]21C)C(C)(C)O (stereo partly drawn)
Aβ-38
  IC50: < 1000 nM
Aβ-40
  IC50: > 10000 nM
Aβ-42
  IC50: < 1000 nM

## CCO[C@@H](C1C[C@@H](C)[C@H]2C(O1)[C@H](O)[C@@]1(C)C3CC[C@H]4C(C)(C)[C@@H](O[C@H]5CN(CC(C)(C)N6CCOCC6)CCO5)CCC45C[C@@]35CC[C@]21C)C(C)(C)O (stereo partly drawn)
Aβ-38
  IC50: < 1000 nM
Aβ-40
  IC50: 1000 to 10000 nM
Aβ-42
  IC50: < 1000 nM

## CCO[C@@H]([C@H]1C[C@@H](C)[C@H]2[C@H](O1)[C@H](O)[C@@]1(C)[C@@H]3CC[C@H]4C(C)(C)[C@@H](O[C@H]5CN(CC6CN(C)C6)CCO5)CCC45C[C@@]35CC[C@]21C)C(C)(C)OC (stereo partly drawn)
Aβ-38
  IC50: < 1000 nM
Aβ-40
  IC50: 1000 to 10000 nM
Aβ-42
  IC50: < 1000 nM

## CCO[C@@H]([C@H]1C[C@@H](C)[C@H]2[C@H](O1)[C@H](O)[C@@]1(C)[C@@H]3CC[C@H]4C(C)(C)[C@@H](OC(=O)[C@H]5COCCN5)CCC45C[C@@]35CC[C@]21C)C(C)(C)O (stereo partly drawn)
Aβ-38
  IC50: < 1000 nM
Aβ-40
  IC50: 1000 to 10000 nM
Aβ-42
  IC50: < 1000 nM

## CCO[C@@H]([C@H]1C[C@@H](C)[C@H]2[C@H](O1)[C@H](O)[C@@]1(C)[C@@H]3CC[C@H]4C(C)(C)[C@@H](O[C@H]5CN([C@H](C)CF)CCO5)CCC45C[C@@]35CC[C@]21C)C(C)(C)O (stereo partly drawn)
Aβ-38
  IC50: 1000 to 10000 nM
Aβ-40
  IC50: > 10000 nM
Aβ-42
  IC50: 1000 to 10000 nM

## CO[C@@H]([C@H]1C[C@@H](C)[C@H]2[C@H](O1)[C@H](O)[C@@]1(C)[C@@H]3CC[C@H]4C(C)(C)[C@@H](O[C@H]5CN(CCN(C)C)CCO5)CCC45C[C@@]35CC[C@]21C)C(C)(C)O (stereo partly drawn)
Aβ-38
  IC50: 1000 to 10000 nM
Aβ-40
  IC50: > 10000 nM
Aβ-42
  IC50: < 1000 nM

## CCO[C@@H]([C@H]1C[C@@H](C)[C@H]2[C@H](O1)[C@H](O)[C@@]1(C)[C@@H]3CC[C@H]4C(C)(C)[C@@H](O[C@H]5CN(CC(C)(C)O)CCO5)CCC45C[C@@]35CC[C@]21C)C(C)(C)O (stereo partly drawn)
Aβ-38
  IC50: < 1000 nM
Aβ-40
  IC50: 1000 to 10000 nM
Aβ-42
  IC50: < 1000 nM
